Assay results from paper PMC5494507, “γ‐Secretase inhibitors in cancer clinical trials are pharmacologically and functionally distinct” (EMBO Molecular Medicine, 2017).
pIC50: −log10 of the molar value. “Also recorded” adds a separate entry of the source. Where two headings read alike, the source gives them in different places.

Experiments:
γ‐secretase = γ‐secretase (Homo sapiens, UniProt P49768); details: quoted in parentheses in the authors' response, no assay and reference not given; cited from earlier work
[1] = tested on: cNOTCH1‐4sub and cAPPC100sub; assay: Substrate accumulation in H4 cells stably expressing cNOTCH1-4sub and cAPPC100sub (Western blot); format: cell-based, human; details: for substrate accumulation (Western blot), other GSIs tried beside DAPT: authors' response, concentration not given
Procedure: In order to enable us to more definitively characterize the effects of various GSIs on different substrates, we generated H4 cells stably expressing cNOTCH1‐4sub and cAPPC100sub (Fig 4A). Chimeric substrates were detected by WB using anti‐FLAG antibody (Fig 4B). Multiple CTFs are detectable as well as potential dimers for all substrates. Multiple NTF are also detectable using anti‐Aβ 6E10 antibody (Appendix Fig S2) for cNOTCH1, 3, and 4 substrates.
(§1) H4 cells were cultured in Opti‐mem media (Thermo‐Fisher) supplemented with Hyclone 6% fetal bovine serum (GE, Logan, Utah, USA) and 1% penicillin/streptomycin (Life Technologies, Grand Island, NY, USA). pCDNA3.1 plasmids containing the substrate cDNAs were transfected into H4 cells using FuGENE HD reagent (Madison, WI, USA). Stable cell lines were established using G418 selection. […] Cells and conditioned media were used for WB, IP, and ELISA.
Sandwich ELISAs used for Aβ detection were performed as previously described (Murphy et al, 1999; Ran et al, 2014). Briefly, Aβ and Aβ‐like peptides in conditioned media were captured with Ab5 antibody and detected with horseradish peroxidase labeled mAb 4G8 (Biolegend). Synthetic Aβ1‐40 was used as standard. All ELISAs were developed with TMB substrate (KPL, Gaithersburg, Maryland, USA). Bis‐Tris precast gels (Biorad, Hercules, CA, USA) were used for all SDS–PAGE. Monoclonal anti‐FLAG M2 antibody (Sigma) and Aβ1‐16 antibody 6E10 (Covance) were used for Western blotting at 1:1,000 dilution. Anti‐CD74 In‐1 antibody (BD Bioscience, San Jose, CA, USA) was used for A20 cell lysate Western blotting at dilution of 1:1,000. MDA‐MB‐231 cell extracts were prepared by lysing cells in RIPA buffer containing protease and phosphatase inhibitors. The lysates were kept on ice for 30 min and vortexed every 10 min, and then centrifuged at 4°C for 10 min at 1,000 g. The supernatants were collected, and protein concentrations were determined by Bradford Assay. […]

NOTCH1 = assay: Endogenous NOTCH1 cleavage inhibition in MDA-MB-231 cells (NICD Western blot after EDTA activation); format: cell-based; details: MDA-MB-231, 100 nM to 12.5 μM, 1 h pretreatment then 5 mM EDTA 5 min
Procedure: (§2) To extend the study to a more physiological system, we assessed endogenous NOTCH1 cleavage inhibition using the triple‐negative breast cancer line MDA‐MB‐231 (Fig 6A). Full‐length blots are shown in source data for Fig 6. NOTCH1 cleavage was detected by Western blotting using the Cell Signaling neo‐epitope NICD antibody. […] The inhibition of endogenous APP in MDA‐MB‐231 cells was also tested by detecting accumulation of APP COOH‐terminal fragments (APP‐CTFs). […] Figure 6D summarized the APP‐CTF band intensities normalized for DMSO group. The original blots are available in source data for Fig 6.
Short‐term endogenous NOTCH1 cleavage inhibition was tested in the triple‐negative breast cancer cell lines MDA‐MB‐231 (ATCC, Manassas, VA). Cells were plated in 60 mm dishes and maintained as monolayer cultures in DMEM medium supplemented with 10% FBS, 1% penicillin/streptomycin, 1% L‐glutamine (Life Technologies), and incubated at 37°C in a humidified 5% CO2 incubator. After the cells reached ~75% confluency, cultures were pretreated with GSIs for 1 h in DMEM at 37°C in a 5% CO2 incubator. GSIs were tested at concentrations of 0, 0.1, 0.5, 2.5, and 12.5 μM. Then, EDTA (5 mM, Life Technologies) was added to the cell cultures to induce Notch activation for 5 min. Following incubation, cell extracts were prepared by lysing cells in RIPA buffer (Santa Cruz Biotechnology) containing protease and phosphatase inhibitors. Western blotting was performed using Cleaved NOTCH1 (Val1744) antibody (Cell Signaling) with β‐actin (Santa Cruz Biotechnology) as loading control. Band intensities were normalized for actin using ImageJ Software (NIH, USA).
(§3) Sandwich ELISAs used for Aβ detection were performed as previously described (Murphy et al, 1999; Ran et al, 2014). Briefly, Aβ and Aβ‐like peptides in conditioned media were captured with Ab5 antibody and detected with horseradish peroxidase labeled mAb 4G8 (Biolegend). Synthetic Aβ1‐40 was used as standard. All ELISAs were developed with TMB substrate (KPL, Gaithersburg, Maryland, USA). Bis‐Tris precast gels (Biorad, Hercules, CA, USA) were used for all SDS–PAGE. Monoclonal anti‐FLAG M2 antibody (Sigma) and Aβ1‐16 antibody 6E10 (Covance) were used for Western blotting at 1:1,000 dilution. Anti‐CD74 In‐1 antibody (BD Bioscience, San Jose, CA, USA) was used for A20 cell lysate Western blotting at dilution of 1:1,000. MDA‐MB‐231 cell extracts were prepared by lysing cells in RIPA buffer containing protease and phosphatase inhibitors. The lysates were kept on ice for 30 min and vortexed every 10 min, and then centrifuged at 4°C for 10 min at 1,000 g. The supernatants were collected, and protein concentrations were determined by Bradford Assay. Pan‐NOTCH1 antibody (C‐20) (Santa Cruz Biotechnology) and cleaved NOTCH1 (Val1744) antibody ([…]) were used at 1:500 and 1:100 dilution in the test of endogenous NOTCH1 inhibition with β‐actin expression used as loading control. β‐actin antibody was used at 1:1,000 dilution (Sigma). Band intensities normalized for actin using densitometry analysis with ImageJ Software (NIH, USA).

APP = assay: Endogenous APP-CTF accumulation in MDA-MB-231 cells (Western blot); format: cell-based
Procedure: as §2
Values are mean ± SD of three tests. • APP‐CTF Western blot of MDA‐MB‐231 cells treated with indicated concentration of GSIs for 16 h. • Band intensities of APP‐CTF with 0.1 μM GSIs were normalized for DMSO control group. Values are mean ± SD of three tests. Data information: Original blots are provided as source data. All band intensity data are derived from three independent experiments and are analyzed by one‐way ANOVA using GraphPad Prism6 software. All experiments were repeated three times.Source data are available online for this figure.

cNOTCH2sub = cNOTCH2sub (Homo sapiens, UniProt P49768); assay: Cell-based γ-secretase cleavage assay, cNOTCH2sub in H4 cells (Aβ-like peptide ELISA); details: rank among the six GSIs, number in brackets
Procedure: (§4) Using these cell‐based γ‐secretase cleavage assays, we systematically investigated the substrate inhibition profile of BMS‐906024, MK‐0752, PF‐308414, RO4929097, Semagacestat, and DAPT. We treated H4 cells stably expressing cNOTCH1‐4sub with 4 pM to 10 μM of GSIs (Fig 5A and Table 2) and measured the Aβ‐like peptide secreted into the media.
(§5) For the cell‐based assay, all substrates contain a human NOTCH4 signal peptide sequence ([…]), amyloid β peptide (Aβ1–25/K16A) epitope tag followed by the juxtamembrane region (JMD) of the given substrate and a FLAG tag ([…]) at the COOH‐terminal. K16A mutant was created to decrease potential α‐secretase cleavage. The cDNAs were generated by gene synthesis conducted by Genscript. A schematic representation of the substrates is provided in Fig 4A, and sequences of the cDNAs and the proteins are provided in Appendix Fig S6. For clarity, these substrates are referred to as cell‐based assay substrates (e.g., NOTCH1 is cNOTCH1sub). Substrate cDNAs were cloned into pCDNA3.1 (Invitrogen, Carlsbad, CA, USA) for expression in H4 cells (ATCC, Manassas, VA).
as §1, §3

full‐length APP = assay: Cell-based γ-secretase cleavage assay, full-length APP stably overexpressing cells (Aβ ELISA)
Procedure: (§6) We next tested all GSIs on cAPPC100sub and full‐length APP stably overexpressing cells. […] The low‐dose potentiation of γ‐secretase cleavage was further mechanistically probed using in vitro assays with recombinant substrates and IP‐MS.
as §1, §3

cNOTCH1‐4sub = assay: Average of cell-based IC50s on cNOTCH1-4sub in H4 cells; set-up: species or system human; details: read-out: Average IC50s of each GSI on cNOTCH1‐4sub
Procedure: as §4, §5, §1, §3

cNOTCH1sub = assay: Cell-based γ-secretase cleavage assay, cNOTCH1sub in H4 cells (Aβ-like peptide ELISA); set-up: species or system human; details: Aβ-like peptide in media, GSI overnight
Procedure: as §4, §5, §1, §3

cNOTCH3sub = assay: Cell-based γ-secretase cleavage assay, cNOTCH3sub in H4 cells (Aβ-like peptide ELISA); set-up: species or system human
Procedure: as §4, §5, §1, §3

Aβ40 = tested on: Aβ40; set-up: method as in ref Appendix Table S1 (Gavai et al, 2015; Dovey et al, 2001; Cook et al, 2010; Krop et al, 2012; Wei et al, 2010; Luistro et al, 2009; Mitani et al, 2012); details: ref Appendix Table S1 (Gavai et al, 2015; Dovey et al, 2001; Cook et al, 2010; Krop et al, 2012; Wei et al, 2010; Luistro et al, 2009; Mitani et al, 2012); read-out: Reported IC50s Aβ40; cited from earlier work
cNOTCH4sub = assay: Cell-based γ-secretase cleavage assay, cNOTCH4sub in H4 cells (Aβ-like peptide ELISA); set-up: species or system human; details: Aβ-like peptide in media, GSI overnight
Procedure: as §4, §5, §1, §3

cAPPC100sub = assay: Cell-based γ-secretase cleavage assay, cAPPC100sub stably overexpressing cells (Aβ ELISA)
Source text: as §6, §5, §1, §3

SPP = tested on: SPP; set-up: method as in Weihofen et al, 2003; details: concentration up to 100 μM; ref Weihofen et al, 2003; cited from earlier work
[2] = tested on: cNOTCH1‐4sub and cAPPC100sub; assay: Secretion of Aβ-like peptides from cNOTCH1-4sub and cAPPC100sub H4 cells (ELISA, IP-MS); format: cell-based, human
Procedure: The secreted Aβ‐like peptides can be detected using Aβ ELISA method.
as §1
(§7) Immunoprecipitation and mass spectrometry of Aβ and Aβ‐like peptides in cell‐free assay or conditioned media were performed as previously described (Ran et al, 2014). Briefly, the peptides were immunoprecipitated using anti‐Aβ Ab5 antibody bound to sheep anti‐mouse IgG magnetic Dynabeads (Life Technologies) and eluted with 0.1% trifluoroacetic acid (TFA) in water. […] Samples were analyzed using a Bruker Microflex LRF‐MALDI‐TOF mass spectrometer.
Sandwich ELISAs used for Aβ detection were performed as previously described (Murphy et al, 1999; Ran et al, 2014). Briefly, Aβ and Aβ‐like peptides in conditioned media were captured with Ab5 antibody and detected with horseradish peroxidase labeled mAb 4G8 (Biolegend). […] The supernatants were collected, and protein concentrations were determined by Bradford Assay. […]

rC100sub and rNOTCH1sub = assay: Cell-free γ-secretase assay, rC100sub and rNOTCH1sub (Appendix Fig S1); format: biochemical
Procedure: Although not suited for detailed dose–response studies due to challenges in precise quantification of the cleavage products, we nevertheless conducted several studies to examine how different GSIs affect cleavage in the cell‐free assay. […] We also evaluated a previously reported Notch‐sparing GSI, Avagacestat (BMS‐708163) (Gillman et al, 2010; Albright et al, 2013) using this assay (Appendix Fig S1).
CHAPSO‐solubilized CHO cell membrane was prepared as described in previous report. 25 μg/ml of each substrate was incubated with the membrane (100 μg/ml total protein) in sodium citrate buffer (150 mM, pH 6.5, Roche Complete protease inhibitor added) for 2 h at 37°C. […] The reaction was terminated by placing tubes on ice until immunoprecipitation.
as §7, with “water. COOH‐terminal fragments (CTFs) were immunoprecipitated with anti‐FLAG M2 magnetic beads (Sigma).” for “water.”

CC(C)C[C@H](NC(=O)[C@H](Cc1ccccc1)C[C@@H](O)[C@H](Cc1ccccc1)NC(=O)OC(C)(C)C)C(=O)N[C@@H](Cc1ccccc1)C(N)=O [L685458]
pIC50 (γ‐secretase): 7.77 | substrate accumulation (Western blot), other GSIs tried beside DAPT [1]: only cAPPC100 show some accumulation

C[C@H](NC(=O)Cc1cc(F)cc(F)c1)C(=O)N[C@H](C(=O)OC(C)(C)C)c1ccccc1 [DAPT]
NICD levels (NOTCH1): did not suppress NICD levels to baseline levels at any concentrations | APP CTF level / accumulation at 100 nM (APP; MDA-MB-231 (231 cells), 100 nM, triplicate): hard to see; also recorded: did not significantly increase CTF level | concentration from which APP‐CTF process is inhibited (APP; MDA-MB-231, 16 h): ≥ 500 nM | rank order of inhibition of cNOTCH2sub (cNOTCH2sub): [6] | low-dose potentiation of cleavage, APP (full‐length APP; full-length APP overexpressing cells): low‐dose potentiation of cleavage was observed | pIC50 (full‐length APP; full-length APP stably overexpressing cells, Aβ ELISA): 7.49 | pIC50 (cNOTCH1‐4sub): 6.72 | pIC50 (cNOTCH1sub): 8.31 | effect on cNOTCH3sub cleavage at low concentrations (cNOTCH3sub): potentiate | pIC50 (cNOTCH3sub; Aβ-like peptide in media, GSI overnight, read-out: IC50 cNOTCH3sub): 6.21 | pIC50 (cNOTCH3sub; value in parentheses, read-out: IC50 cNOTCH3sub, from curves excluding the Aβ level > 120%): 6.58 | substrate accumulation (Western blot) ([1]; 1 μM treatment, H4 cells): did not result in significant substrate accumulation except for cAPPC100sub | pIC50 (Aβ40): 7.70 | pIC50 (cNOTCH4sub): 7.29 | pIC50 (cAPPC100sub; stably overexpressing cells, Aβ ELISA, read-out: IC50 cC100sub): 6.44 | pIC50 (cAPPC100sub; value in parentheses, read-out: IC50 cC100sub, from curves excluding the Aβ level > 120%): 6.67 | effect on SPP activity (SPP): no effect

C[C@H](NC(=O)[C@@H](O)c1cc(F)cc(F)c1)C(=O)N[C@@H]1C(=O)N(C)c2ccccc2-c2ccccc21 [LY411575, N2‐[(2S)‐2‐(3,5‐difluorophenyl)‐2‐hydroxyethanoyl]‐N1‐[(7S)‐5‐methyl‐6‐oxo ‐6,7‐dihydro‐5H‐dibenzo[b,d]azepin‐7‐yl]‐L‐alaninamide]
substrate accumulation (Western blot), other GSIs tried beside DAPT [1]: only cAPPC100 show some accumulation | Aβ-like peptides in culture media (IP-MS) ([2]; 1 μM): abolished all production | secretion of Aβ-like peptides (ELISA) ([2]; 1 μM applied to cell cultures): almost completely inhibited

NC(=O)[C@@H](CCC(F)(F)F)N(Cc1ccc(-c2ncon2)cc1F)S(=O)(=O)c1ccc(Cl)cc1 [Avagacestat]
inhibition of APP versus Notch cleavage (rC100sub and rNOTCH1sub): inhibit APP and Notch cleavage equivalently
